Laboratory results from ChEMBL document CHEMBL2169818, “Syntheses and biological activities of sulfoximine-based acyclic triaryl olefins” (Bioorg Med Chem Lett, 2012).
pIC50: −log10 of the molar value.

Tests used:
[1] = target: Estrogen receptor beta (Homo sapiens) (UniProt Q92731); test: Displacement of [3H]-estradiol from human recombinant ERbeta expressed in Sf21 cells at 10 uM after 2 hrs
[2] = target: T1, Prostaglandin G/H synthase 1 (Homo sapiens, UniProt P23219); test: Inhibition of human platelet COX1 using arachidonic acid as substrate at 10 uM preincubated for 15 mins before arachidonic acid addition measured after 15 mins
T1 sequence (P23219 whole entry): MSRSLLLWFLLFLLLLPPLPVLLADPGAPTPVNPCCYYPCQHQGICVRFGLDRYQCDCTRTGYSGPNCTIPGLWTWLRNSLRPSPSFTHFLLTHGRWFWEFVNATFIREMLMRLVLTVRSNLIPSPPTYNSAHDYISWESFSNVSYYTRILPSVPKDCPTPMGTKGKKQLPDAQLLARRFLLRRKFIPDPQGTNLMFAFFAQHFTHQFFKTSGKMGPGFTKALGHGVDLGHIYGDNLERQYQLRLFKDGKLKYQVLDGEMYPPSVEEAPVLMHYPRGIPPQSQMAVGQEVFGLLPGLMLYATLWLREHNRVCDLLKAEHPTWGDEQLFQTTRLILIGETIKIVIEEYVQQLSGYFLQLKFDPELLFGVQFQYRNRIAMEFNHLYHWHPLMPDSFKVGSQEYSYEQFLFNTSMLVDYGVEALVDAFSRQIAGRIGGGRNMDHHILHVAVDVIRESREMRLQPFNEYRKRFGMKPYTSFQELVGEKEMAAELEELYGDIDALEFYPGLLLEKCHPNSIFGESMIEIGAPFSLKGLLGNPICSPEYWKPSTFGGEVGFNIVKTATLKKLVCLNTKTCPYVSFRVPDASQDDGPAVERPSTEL

[3] = target: T2, Estrogen receptor (Homo sapiens) (UniProt P03372); test: Displacement of [3H]-estradiol from human recombinant ERalpha expressed in Sf21 cells at 10 uM after 2 hrs
T2 sequence (whole entry): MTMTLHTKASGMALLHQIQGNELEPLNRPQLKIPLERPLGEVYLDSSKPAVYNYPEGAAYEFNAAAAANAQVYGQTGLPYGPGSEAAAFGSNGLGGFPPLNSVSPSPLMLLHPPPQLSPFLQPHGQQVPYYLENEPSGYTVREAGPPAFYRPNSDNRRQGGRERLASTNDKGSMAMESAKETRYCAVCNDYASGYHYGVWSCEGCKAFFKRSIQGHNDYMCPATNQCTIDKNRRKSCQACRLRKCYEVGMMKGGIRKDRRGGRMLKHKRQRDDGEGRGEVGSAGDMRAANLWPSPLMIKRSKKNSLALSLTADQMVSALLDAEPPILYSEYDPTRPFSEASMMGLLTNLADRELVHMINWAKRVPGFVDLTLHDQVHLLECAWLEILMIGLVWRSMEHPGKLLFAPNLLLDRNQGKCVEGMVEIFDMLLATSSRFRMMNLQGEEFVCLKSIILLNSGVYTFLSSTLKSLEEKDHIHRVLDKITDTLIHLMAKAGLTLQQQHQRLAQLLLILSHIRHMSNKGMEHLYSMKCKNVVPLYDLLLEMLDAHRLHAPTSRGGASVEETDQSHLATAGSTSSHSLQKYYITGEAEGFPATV

[4] = target: T3, Prostaglandin G/H synthase 2 (Homo sapiens) (UniProt P35354); test: Inhibition of human recombinant COX2 expressed in Sf21 cells using arachidonic acid as substrate at 10 uM preincubated for 15 mins before arachidonic acid addition measured after 5 mins
T3 sequence (whole entry): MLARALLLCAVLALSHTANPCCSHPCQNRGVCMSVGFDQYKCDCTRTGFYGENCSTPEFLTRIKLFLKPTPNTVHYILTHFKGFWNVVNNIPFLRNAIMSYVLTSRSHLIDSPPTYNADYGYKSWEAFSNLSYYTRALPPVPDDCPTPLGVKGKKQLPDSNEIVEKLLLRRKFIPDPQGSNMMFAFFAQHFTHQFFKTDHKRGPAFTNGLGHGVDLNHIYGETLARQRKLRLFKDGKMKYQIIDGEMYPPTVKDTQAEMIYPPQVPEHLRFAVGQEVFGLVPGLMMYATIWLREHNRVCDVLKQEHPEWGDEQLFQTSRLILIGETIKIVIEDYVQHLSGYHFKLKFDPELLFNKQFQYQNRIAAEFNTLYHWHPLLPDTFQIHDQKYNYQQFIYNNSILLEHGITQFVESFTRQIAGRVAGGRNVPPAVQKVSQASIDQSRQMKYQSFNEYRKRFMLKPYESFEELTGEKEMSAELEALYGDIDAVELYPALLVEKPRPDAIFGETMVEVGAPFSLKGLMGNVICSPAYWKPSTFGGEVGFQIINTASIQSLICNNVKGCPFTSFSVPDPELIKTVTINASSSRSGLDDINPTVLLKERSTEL

[5] = target: T4, Prostaglandin G/H synthase 2 (Homo sapiens, UniProt P35354); test: Inhibition of COX2
T4 sequence (P35354 whole entry): T3 sequence (whole entry)

[6] = target: T1, Prostaglandin G/H synthase 1; test: Inhibition of COX1

Chain of Estrogen receptor beta (Homo sapiens) (Q92731 whole entry): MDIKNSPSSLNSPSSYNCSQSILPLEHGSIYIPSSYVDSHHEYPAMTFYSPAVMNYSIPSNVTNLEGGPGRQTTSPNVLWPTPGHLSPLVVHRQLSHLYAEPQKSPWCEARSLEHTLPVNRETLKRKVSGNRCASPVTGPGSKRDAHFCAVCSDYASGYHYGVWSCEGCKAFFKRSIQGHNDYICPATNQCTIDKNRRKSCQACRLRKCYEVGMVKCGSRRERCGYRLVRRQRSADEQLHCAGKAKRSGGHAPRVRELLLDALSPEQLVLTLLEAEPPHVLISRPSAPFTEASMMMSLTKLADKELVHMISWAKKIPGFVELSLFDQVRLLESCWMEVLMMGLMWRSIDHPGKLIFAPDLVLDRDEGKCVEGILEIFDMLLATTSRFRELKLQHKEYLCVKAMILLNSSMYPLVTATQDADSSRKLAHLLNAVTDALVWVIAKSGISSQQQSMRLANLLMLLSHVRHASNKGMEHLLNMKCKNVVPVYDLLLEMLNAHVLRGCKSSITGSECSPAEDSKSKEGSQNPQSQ

| inhibition [1] [%] | inhibition [2] [%] | inhibition [3] [%] | inhibition [4] [%] | pIC50 [5] | pIC50 [6] | Structure (SMILES) |
| --- | --- | --- | --- | --- | --- | --- |
| 80 | 12 | 91 | 17 |  |  | CCCCC(=C(c1ccccc1)c1ccccc1)c1ccc([S+](C)(=N)[O-])cc1 (stereo not given) |
| 60 | 5 | 54 | 10 |  |  | CCCCC(=C(c1ccccc1)c1ccccc1)c1ccc([S+](C)([O-])=NC#N)cc1 (stereo not given) |
| 77 |  | -6 |  | 7.85 | < 4.00 | CCCCC(=C(c1ccccc1)c1ccccc1)c1ccc(S(C)(=O)=O)cc1 |
| 53 | 23 | 77 |  |  |  | CC(=C(c1ccccc1)c1ccccc1)c1ccc([S+](C)(=N)[O-])cc1 (stereo not given) |
